# According to patent publication US20230036854A1, “HETEROCYCLIC SPIRO-COMPOUNDS AS AM2 RECEPTOR INHIBITORS” (THE UNIVERSITY OF SHEFFIELD, priority 2018, published 2023):
# Molecular target: T1, AM2 receptor (1321N1 cells transfected with CALCRL+RAMP3) (Homo sapiens, UniProt O60896+Q16602)
# T1 construct: host or cells: 1321N1 cells
# Assay: AM2 receptor inhibition, LANCE cAMP agonist-antagonist competition assay
# Assay type: cell-based
# Details: inhibition of AM induced cAMP activation, read-out: AM2 D2 protocol: pIC50 (converted)
# Description: Compounds were assessed for their ability to inhibit ligand-induced elevations of cAMP, using the Perkin Elmer LANCE cAMP assay using commercially-available cells expressing a specific receptor of interest using the following general procedure:
# Compounds were prepared in dimethyl sulfoxide (DMSO—99.9% pure) (Sigma Aldrich, Cat #: D4540) added to powder stocks to produce a 20 mM solution (100% DMSO) that was sonicated at 37° C. for 10 minutes to fully dissolve the compounds. The 20 mM stocks were diluted further in DMSO to produce a 2 mM solution that was sonicated at 37° C. for 10 minutes. 2 mM stocks were dissolved in assay/stimulation buffer to produce a 400 μM solution that was sonicated at 37° C. for 10 minutes for all cAMP assays. All stocks were stored at −20° C. Then serial dilution (Dilution factor: 10) was performed to achieve the desire experimental concentrations.
# Competition assays were performed according to the manufactures instructions using LANCE® TR-FRET cAMP assay kit (Perkin Elmer, Cat #: AD0264). Serial dilutions (3 μl/well) of the molecules were plated in a 384-well OptiPlate (Perkin Elmer, Cat #: 6007299) in duplicates. Appropriate controls (100% stimulation: Forskolin and 0% stimulation: Vehicle control) (6 μl/well) were included in each plate for data normalization. Following the compound addition, 6 μl of G-protein coupled receptor overexpressing cells/Alexa Fluor antibody solution (1:100 dilution) was added in each well at a desired density of 2500cells/well. The overexpressing cell lines were purchased from DiscoveRx, Birmingham, UK. After spinning the plate at 1000 rpm for 1 minute and vortexing briefly, the cells were pre-incubated with the compounds for 30 minutes at room temperature (covered). Then 3 μl of the equivalent peptide ligand (EC50 dose) was added to all the wells except vehicle and forskolin controls. The plate were then spun down at 1000 rpm for 1 minute and once finished they were vortexed briefly and covered. Cells were stimulated in the presence of the ligands for 15 minutes at room temperature. After stimulation 12 μl of detection mix (Europium-Chelate streptavidin/biotinylated cAMP tracer solution) was added to all wells and incubated for 60 minutes at room temperature. The plate was then read on the Enspire multimode Plate reader (Perkin Elmer), at; 320/340 nm excitation and 615/665 nm emission was recorded.
# Assay/Stimulation Buffer (30 mL)—pH 7.4 • 28 mL Hank's Balanced salt solution (+MgCl2, +CaCl2)—(Thermo Fisher Cat #:14170112) • 150 μl HEPES (1M)—(Thermo Fisher Cat #:15630080) • 400 μl Stabilizer (DTPA) Purified BSA (7.5%)—(Perkin Elmer, Cat #: CR84-100)
# The ability of a compound to inhibit the AM induced cAMP activation in AM2 receptor-expressing cells (1321N1 cells transfected with CALCRL+RAMP3, sourced from DiscoverX catalogue number 95-0169C6) was assessed using the protocol above.
# T1 sequence (Q16602 23-461): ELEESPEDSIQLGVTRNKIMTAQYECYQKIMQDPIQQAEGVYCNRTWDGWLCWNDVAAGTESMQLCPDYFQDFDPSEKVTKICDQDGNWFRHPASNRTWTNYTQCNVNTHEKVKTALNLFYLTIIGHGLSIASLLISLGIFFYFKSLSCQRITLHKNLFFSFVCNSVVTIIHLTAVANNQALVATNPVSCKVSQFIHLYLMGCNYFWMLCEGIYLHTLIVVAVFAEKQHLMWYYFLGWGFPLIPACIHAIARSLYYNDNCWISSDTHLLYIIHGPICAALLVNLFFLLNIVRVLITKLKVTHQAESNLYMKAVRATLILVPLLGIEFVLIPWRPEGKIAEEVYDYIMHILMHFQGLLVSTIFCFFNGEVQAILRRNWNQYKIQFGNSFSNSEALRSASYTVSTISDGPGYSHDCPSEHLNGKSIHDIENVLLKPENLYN
# T1 sequence (O60896 24-148): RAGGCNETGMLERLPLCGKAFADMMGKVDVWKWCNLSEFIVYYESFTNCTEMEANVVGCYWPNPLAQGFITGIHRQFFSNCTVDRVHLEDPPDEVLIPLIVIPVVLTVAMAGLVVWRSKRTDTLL
row,SMILES,IC50
1,"CNCc1ccccc1CN(CC(=O)Nc1ccc2c(c1)C[C@@]1(C2)C(=O)Nc2ncccc21)C(=O)C1(C)CCN(C)CC1 [Example 36, (R)-1,4-Dimethyl-N-(2-((methylamino)methyl)benzyl)-N-(2-oxo-2-((2′-oxo-1,1′,2′,3-tetrahydrospiro[indene-2,3′-pyrrolo[2,3-b]pyridin]-5-yl)amino)ethyl)piperidine-4-carboxamide]",1.82 nM
2,"CNCc1ccccc1CN(CC(=O)Nc1ccc2c(c1)C[C@@]1(C2)C(=O)Nc2ncccc21)C(=O)C1(C)CCN(CC(N)=O)CC1 [Example 37, (R)-1-(2-Amino-2-oxoethyl)-4-methyl-N-(2-((methylamino)methyl)benzyl)-N-(2-oxo-2-((2′-oxo-1,1′,2′,3-tetrahydrospiro[indene-2,3′-pyrrolo[2,3-b]pyridin]-5-yl)amino)ethyl)piperidine-4-carboxamide]",35.5 nM
3,"CNCc1ccccc1CN(CC(=O)Nc1ccc2c(c1)CC1(C2)C(=O)Nc2ncccc21)C(=O)C1(C)CCN(CC(F)(F)F)CC1 (centres unmarked) [Example 38, 4-Methyl-N-(2-((methylamino)methyl)benzyl)-N-(2-oxo-2-((2′-oxo-1,1′,2′,3-tetrahydrospiro[indene-2,3′-pyrrolo[2,3-b]pyridin]-5-yl)amino)ethyl)-1-(2,2,2-trifluoroethyl)piperidine-4-carboxamide]",10.5 nM
4,"CNCc1ccccc1CN(CC(=O)Nc1ccc2c(c1)C[C@@]1(C2)C(=O)Nc2ncccc21)C(=O)C1(C)CCN(CC(F)(F)F)CC1 [Example 39, (R)-4-Methyl-N-(2-((methylamino)methyl)benzyl)-N-(2-oxo-2-((2′-oxo-1,1′,2′,3-tetrahydrospiro[indene-2,3′-pyrrolo[2,3-b]pyridin]-5-yl)amino)ethyl)-1-(2,2,2-trifluoroethyl)piperidine-4-carboxamide]",19.5 nM
5,"CNCc1ccccc1CN(CC(=O)Nc1ccc2c(c1)C[C@@]1(C2)C(=O)Nc2ncccc21)C(=O)C1(C)CCN(Cc2ccccc2)CC1 [Example 40, (R)-1-Benzyl-4-methyl-N-(2-((methylamino)methyl)benzyl)-N-(2-oxo-2-((2′-oxo-1,1′,2′,3-tetrahydrospiro[indene-2,3′-pyrrolo[2,3-b]pyridin]-5-yl)amino)ethyl)piperidine-4-carboxamide]",6.31 nM
6,"CNCc1ccccc1CN(CC(=O)Nc1ccc2c(c1)C[C@@]1(C2)C(=O)Nc2ncccc21)C(=O)C1(C)CCN(CCOC)CC1 [Example 41, (R)-1-(2-Methoxyethyl)-4-methyl-N-(2-((methylamino)methyl)benzyl)-N-(2-oxo-2-((2′-oxo-1,1′,2′,3-tetrahydrospiro[indene-2,3′-pyrrolo[2,3-b]pyridin]-5-yl)amino)ethyl)piperidine-4-carboxamide]",1.1 nM
7,"CNCc1ccccc1CN(CC(=O)Nc1ccc2c(c1)C[C@@]1(C2)C(=O)Nc2ncccc21)C(=O)C1(C)CCN(CCO)CC1 [Example 42, (R)-1-(2-Hydroxyethyl)-4-methyl-N-(2-((methylamino)methyl)benzyl)-N-(2-oxo-2-((2′-oxo-1,1′,2′,3-tetrahydrospiro[indene-2,3′-pyrrolo[2,3-b]pyridin]-5-yl)amino)ethyl)piperidine-4-carboxamide]",6.46 nM
8,"CNCc1ccccc1CN(CC(=O)Nc1ccc2c(c1)C[C@@]1(C2)C(=O)Nc2ncccc21)C(=O)C1(C)CCN(CC(=O)O)CC1 [Example 43, (R)-2-(4-Methyl-4-((2-((methylamino)methyl)benzyl)(2-oxo-2-((2′-oxo-1,1′,2′,3-tetrahydrospiro[indene-2,3′-pyrrolo[2,3-b]pyridin]-5-yl)amino)ethyl)carbamoyl)piperidin-1-yl)acetic Acid]",135 nM
9,"CNCc1ccccc1CN(CC(=O)Nc1ccc2c(c1)C[C@@]1(C2)C(=O)Nc2ncccc21)C(=O)C1(C)CCN(CC(=O)N2CCNCC2)CC1 [Example 44, (R)-4-Methyl-N-(2-((methylamino)methyl)benzyl)-N-(2-oxo-2-((2′-oxo-1,1′,2′,3-tetrahydrospiro[indene-2,3′-pyrrolo[2,3-b]pyridin]-5-yl)amino)ethyl)-1-(2-oxo-2-(piperazin-1-yl)ethyl)piperidine-4-carboxamide]",10.7 nM
10,"CNCc1ccccc1CN(CC(=O)Nc1ccc2c(c1)CC1(C2)C(=O)Nc2ncccc21)C(=O)C1(C)CCN(CC(=O)O)CC1 (centres unmarked) [Example 45, 2-(4-Methyl-4-((2-((methylamino)methyl)benzyl)(2-oxo-2-((2′-oxo-1,1′,2′,3-tetrahydrospiro[indene-2,3′-pyrrolo[2,3-b]pyridin]-5-yl)amino)ethyl)carbamoyl)piperidin-1-yl)acetic Acid]",2.34 nM
11,"CNCc1ccccc1CN(CC(=O)Nc1ccc2c(c1)C[C@@]1(C2)C(=O)Nc2ncccc21)C(=O)C1(C)CCN(Cc2ccc(C(=O)O)cc2)CC1 [Example 46, (R)-4-[[4-Methyl-4-[[2-(methylaminomethyl)phenyl]methyl-[2-oxo-2-[[(3R)-2-oxospiro[1H-pyrrolo[2,3-b]pyridine-3,2′-indane]-5′-yl]amino]ethyl]carbamoyl]-1-piperidyl]methyl]benzoic Acid]",25.7 nM
12,"CNCc1ccccc1CN(CC(=O)Nc1ccc2c(c1)C[C@@]1(C2)C(=O)Nc2ncccc21)C(=O)C1(C)CCN(Cc2cccc(C(=O)O)c2)CC1 [Example 47, (R)-3-((4-Methyl-4-((2-((methylamino)methyl)benzyl)(2-oxo-2-((2′-oxo-1,1′,2′,3-tetrahydrospiro[indene-2,3′-pyrrolo[2,3-b]pyridin]-5-yl)amino)ethyl)carbamoyl)piperidin-1-yl)methyl)benzoic Acid]",5.01 nM
13,"CNCc1ccccc1CN(CC(=O)Nc1ccc2c(c1)C[C@@]1(C2)C(=O)Nc2ncccc21)C(=O)C1(C)CCN(CC2CCNCC2)CC1 [Example 49, (R)-4-Methyl-N-(2-((methylamino)methyl)benzyl)-N-(2-oxo-2-((2′-oxo-1,1′,2′,3-tetrahydrospiro[indene-2,3′-pyrrolo[2,3-b]pyridin]-5-yl)amino)ethyl)-1-(piperidin-4-ylmethyl)piperidine-4-carboxamide]",1.55 nM
14,"CNCc1ccccc1CN(CC(=O)Nc1ccc2c(c1)C[C@@]1(C2)C(=O)Nc2ncccc21)C(=O)C1(C)CCN(Cc2ccncc2)CC1 [Example 50, (R)-4-Methyl-N-(2-((methylamino)methyl)benzyl)-N-(2-oxo-2-((2′-oxo-1,1′,2′,3-tetrahydrospiro[indene-2,3′-pyrrolo[2,3-b]pyridin]-5-yl)amino)ethyl)-1-(pyridin-4-ylmethyl)piperidine-4-carboxamide]",2.19 nM
15,"CNCc1ccccc1CN(CC(=O)Nc1ccc2c(c1)CC1(C2)C(=O)Nc2ncccc21)C(=O)C1(C)CCN(C(=O)N2CCCC2)CC1 (centres unmarked) [Example 51, 4-Methyl-N-[[2-(methylaminomethyl)phenyl]methyl]-N-[2-oxo-2-[(2-oxospiro[1H-pyrrolo[2,3-b]pyridine-3,2′-indane]-5′-yl)amino]ethyl]-1-(pyrrolidine-1-carbonyl)piperidine-4-carboxamide]",2.34 nM
16,"CNCc1ccccc1CN(CC(=O)Nc1ccc2c(c1)C[C@@]1(C2)C(=O)Nc2ncccc21)C(=O)C1(C)CCN(C(=O)N(C)C)CC1 [Example 53, (R)—N1,N1,4-Trimethyl-N4-(2-((methylamino)methyl)benzyl)-N4-(2-oxo-2-((2′-oxo-1,1′,2′,3-tetrahydrospiro[indene-2,3′-pyrrolo[2,3-b]pyridin]-5-yl)amino)ethyl)piperidine-1,4-dicarboxamide]",14.1 nM
17,"CNCc1ccccc1CN(CC(=O)Nc1ccc2c(c1)C[C@@]1(C2)C(=O)Nc2ncccc21)C(=O)C1(C)CCN(C(=O)N2CCC2)CC1 [Example 54, (R)-1-(Azetidine-1-carbonyl)-4-methyl-N-(2-((methylamino)methyl)benzyl)-N-(2-oxo-2-((2′-oxo-1,1′,2′,3-tetrahydrospiro[indene-2,3′-pyrrolo[2,3-b]pyridin]-5-yl)amino)ethyl)piperidine-4-carboxamide]",3.8 nM
